Where two headings read alike, the source gives them in different places. Where only a bound is given, the exact number is not on record here.

For one assay, the system named is Pseudomonas fluorescens. Nature of the assay: Alternate Minimum Inhibitory Concentrations Test (Table 4), Ps.fl. The following applies: Table 4 alternate test; for MIC: Pseudomonas fluorescens, read-out: MIC Ps.fl; for MIC Ps.fl (I = inactive): class symbol. It counts as cell-based. The procedure:
The compounds of Examples 1-8, 12-26, 28-33, 36-37, 39-42, 44-109, 111-114, and 116-120 were subjected also to the following alternate biocidal activity test procedures with the results as indicated in Table 4.
The MIC test measures the viability of Pseudomonas fluorescens inoculum in TSB when exposed for 72 hours to varying concentrations of test compound.
A 125 μl aliquot of 10,000 ppm test compound in acetone was added to 4.88 ml of TSB to provide a 250 ppm solution. From this solution, 100 μL was transferred to the first row of two microtiter plate columns. Both replicates and five additional compounds were all serially diluted 1:1 to a final concentration of 0.8 ppm in TSB.
Inoculation was accomplished by diluting a 24 hr Ps fl culture, four mls per 36 mls of phosphate buffer solution. A Dynatech autoinoculator was used to transfer 1.5 μl of this cell suspension to the microtiter plates. The plates were incubated at 30° C. for 3 days before the lowest concentration at which no growth occurs was recorded in the database.

Assay [1] deals with Pseudoperonospora cubensis. In words: whole plant or invertebrate. The following applies: Pseudoperonospora cubensis, in Cucumis sativus, 168 h; read-out: % Control CDM. It counts as in vivo.
The test system of the next assay is Piricularia oryzae. In words: whole plant or invertebrate. The note with it: Pyricularia oryzae. The assay is classed as in vivo.
In assay [2] the test system is Pellicularia filamentosa (f. sp. sasiki). Nature of the assay: whole plant or invertebrate. It counts as in vivo.
Another assay has as its system Phytophthora infestans. Nature of the assay: whole plant or invertebrate. It counts as in vivo. The following applies: Phytophthora infestans, in Solanum lycopersicum, 96 h.
In assay [3] the test system is Puccinia recondita (f. sp. tritici Races PKB and PLD). Nature of the assay: whole plant or invertebrate. It counts as in vivo. The following applies: Puccinia recondita, 240 h; read-out: % Control WLR.
The subject of assay [4] is Erysiphe graminis (f. sp. tritici). Nature of the assay: whole plant or invertebrate. The following applies: Blumeria graminis; read-out: % Control WPM. It counts as in vivo.
[5] abbreviates: 250 ppm to 0.8 ppm in TSB, 72 hours, 30° C.
The mark [6] stands for this setting: read-out: % Control RB, application rate 200 ppm.
Setting [7] is: read-out: % Control TLB, application rate 200 ppm.

On to `CCCCCCCCNC(=O)/C=C\SC(=O)c1ccc(OCCCCCCC)cc1` [Compound 45, N-octyl-cis-3-[(4-heptoxybenzoyl)thio]acrylamide], for which, in the assay on Pseudomonas fluorescens (setting [5]), the minimum inhibitory concentration (MIC) was above 250 µg/mL. Besides, the pest or weed control at 200 ppm was 0% in assay [1]; 0% in the assay on Piricularia oryzae (setting [6]); 80% in assay [2] (120 h, read-out: % Control RSB); 0% in the assay with Phytophthora infestans (setting [7]); 0% in assay [3]; 0% in assay [4].

On to `CCCCCCCCNC(=O)/C=C\SC(=O)CC1CC(C(C)=O)C1(C)C` (stereo not drawn) [Compound 75], for which the MIC in the assay with Pseudomonas fluorescens (setting [5]) was above 250 µg/mL. The pest or weed control at 200 ppm in assay [1] was found to be 0%; in the assay with Piricularia oryzae (setting [6]), 50%; in assay [3] it was 50%; in assay [4], 0%. For the same compound, the pest or weed control at 12 ppm in assay [2] (120 h, read-out: % Control RSB) was 0%. For the same compound, the pest or weed control at 50 ppm in the assay with Phytophthora infestans (read-out: % Control TLB) was 90%.

In the case of `CCCCCCCCNC(=O)/C=C\SC(=O)c1c[nH]c2ccccc12` [Compound 77, N-octyl-cis-3-[(3-indole)carbonylthio]acrylamide], the MIC in the assay with Pseudomonas fluorescens (setting [5]) was above 250 µg/mL. Further, the pest or weed control at 200 ppm in assay [1] was found to be 85%; with Piricularia oryzae (setting [6]), 90%; in assay [2] (120 h, read-out: % Control RSB) it was 0%; with Phytophthora infestans (read-out: % Control TLB), 90%; in assay [3], 80%; in assay [4], 0%.

For the compound `C=CCCC(=O)S/C=C\C(=O)NCCCCCCCC` [Compound 83, N-octyl-cis-3-[(4-pentenoyl)thio]acrylamide], the MIC in the assay on Pseudomonas fluorescens (setting [5]) was above 250 µg/mL. Further, the pest or weed control at 200 ppm in assay [1] worked out at 95%; in the assay with Piricularia oryzae (setting [6]), 50%; in assay [2] (120 h, read-out: % Control RSB), 0%; with Phytophthora infestans (read-out: % Control TLB), 90%; in assay [3], 50%; in assay [4], 0%.

For `CC/C=C/C(=O)S/C=C\C(=O)NCCCCCCCC` [Compound 84, N-octyl-cis-3-[(trans-2-pentenoyl)thio]acrylamide], the MIC in the assay with Pseudomonas fluorescens (setting [5]) was above 250 µg/mL. Also, the pest or weed control at 200 ppm in assay [1] was found to be 0%; in the assay with Piricularia oryzae (setting [6]), 0%; in assay [2] (120 h, read-out: % Control RSB), 0%; with Phytophthora infestans (read-out: % Control TLB), 90%; in assay [3], 50%; in assay [4], 0%.

On to `CCCCCCCCNC(=O)/C=C\SC(=O)CCCC(=O)OC` [Compound 85, N-octyl-cis-3-[(4-methoxycarbonylbutanoyl)thio]acrylamide], for which the MIC with Pseudomonas fluorescens (setting [5]) was above 250 µg/mL. The pest or weed control at 200 ppm in assay [1] was found to be 70%; in the assay with Piricularia oryzae (setting [6]), 90%; in assay [2] (120 h, read-out: % Control RSB) it was 0%; in the assay with Phytophthora infestans (read-out: % Control TLB) it was 90%; in assay [3] it was 80%; in assay [4], 0%.

`CC(=O)S/C=C\C(=O)NC1CCCCCCCCCCC1` [Compound 90, N-cyclododecyl-cis-3-(acetylthio)acrylamide]: the MIC in the assay on Pseudomonas fluorescens (setting [5]) was above 250 µg/mL. Moreover, the pest or weed control at 200 ppm stood at 85% in assay [1]; 0% in the assay with Piricularia oryzae (setting [6]); 0% in assay [2] (120 h, read-out: % Control RSB); 0% in the assay with Phytophthora infestans (setting [7]); 0% in assay [3]. Besides, in assay [4], the pest or weed control at 50 ppm worked out at 0%.

For the compound `CCCCCCCCNC(=O)/C=C\SC(=O)CCc1ccccc1` [Compound 91, N-octyl-cis-3-[(3-phenylpropanoyl)thio]acrylamide], the “MIC Ps.fl” value with Pseudomonas fluorescens (setting [5]) is listed as above 250 Ppm. Besides, the pest or weed control at 200 ppm stood at 70% in assay [1], 70% with Piricularia oryzae (read-out: % Control RB), 80% in the assay on Phytophthora infestans (read-out: % Control TLB) and 25% in assay [3]. Moreover, the “% Control RSB” value in assay [2] (in vivo) stood at 0 % Control. In addition, the pest or weed control at 12 ppm in assay [4] came out at 85%.

Consider `CCCCC/C=C/C(=O)S/C=C\C(=O)NCCCCCCCC` [Compound 92, N-octyl-cis-3-[(trans-2-octenoyl)thio]acrylamide], for which the MIC in the assay on Pseudomonas fluorescens (setting [5]) was above 250 µg/mL. For the same compound, the pest or weed control at 200 ppm in assay [1] was determined as 85%; in the assay on Piricularia oryzae (read-out: % Control RB), 70%; in assay [2] (120 h, read-out: % Control RSB) it was 0%; in the assay on Phytophthora infestans (read-out: % Control TLB), 90%. Further, the pest or weed control at 50 ppm in assay [3] and in assay [4] was 50% each time.

As to `CCCCCCCCNC(=O)/C=C\SC(=O)CC1CCCCC1` [Compound 94, N-octyl-cis-3-(cyclohexaneacetylthio)acrylamide], the MIC in the assay with Pseudomonas fluorescens (setting [5]) is above 250 µg/mL. Further, the pest or weed control at 200 ppm in assay [1] is 70%; in the assay with Piricularia oryzae (setting [6]), 90%; in assay [2] (120 h, read-out: % Control RSB) it was 0%; in the assay on Phytophthora infestans (read-out: % Control TLB), 80%; in assay [3], 50%; in assay [4] it was 85%.

`CCCCCCCCNC(=O)/C=C\SC(=O)c1ccnc2ccccc12` [Compound 95, N-octyl-cis-3-[(4-quinoline)carbonylthio]acrylamide]: the MIC in the assay with Pseudomonas fluorescens (setting [5]) was above 250 µg/mL. Moreover, the pest or weed control at 200 ppm in assay [1] turned out to be 95%; in assay [2] (120 h, read-out: % Control RSB) it was 0%; in the assay on Phytophthora infestans (read-out: % Control TLB) it was 80%; in assay [3], 50%; in assay [4], 0%. For the same compound, in the assay on Piricularia oryzae (read-out: % Control RB), the pest or weed control at 50 ppm was 70%.

For the compound `CCCCCCCCNC(=O)/C=C\SC(=O)c1cc([N+](=O)[O-])cc([N+](=O)[O-])c1` [Compound 97, N-octyl-cis-3-[(3,5-dinitrobenzoyl)thio]acrylamide], in the assay on Pseudomonas fluorescens (setting [5]), the MIC was above 250 µg/mL. Also, the pest or weed control at 50 ppm in assay [1] was determined as 0%. The pest or weed control at 200 ppm stood at 70% in the assay on Piricularia oryzae (read-out: % Control RB); 0% in assay [2] (120 h, read-out: % Control RSB); 80% in the assay with Phytophthora infestans (read-out: % Control TLB); 0% in assay [3]. Further, in assay [4], the pest or weed control at 12 ppm was determined as 50%.

In the case of `CCCCCCCCNC(=O)/C=C\SC(=O)/C=C/C=C/c1ccccc1` [Compound 109, N-octyl-cis-3-[(trans,trans-5-phenyl-2,4-pentadienoyl)thio]acrylamide], the MIC in the assay on Pseudomonas fluorescens (setting [5]) was above 250 µg/mL. In addition, the pest or weed control at 200 ppm in assay [1] is 50%; in the assay on Piricularia oryzae (setting [6]), 0%; in the assay with Phytophthora infestans (setting [7]), 0%; in assay [3], 0%; in assay [4], 0%.

`CCCCCCCCNC(=O)/C=C\SC(=O)c1ccc(Br)o1` [Compound 111, N-octyl-cis-3-[(5-bromo-2-furoyl)thio]acrylamide]: the MIC with Pseudomonas fluorescens (setting [5]) was above 250 µg/mL. The pest or weed control at 200 ppm in assay [1] stood at 85%; with Piricularia oryzae (setting [6]), 0%; in the assay with Phytophthora infestans (read-out: % Control TLB), 80%; in assay [3], 0%; in assay [4], 0%.

As for `CCCCCCCCNC(=O)/C=C\SC(=O)CCCCCCCC(=O)OC` [Compound 117, N-octyl-cis-3-[(8-methoxycarbonyloctanoyl)thio]acrylamide], in the assay on Pseudomonas fluorescens, the “MIC Ps.fl (I = inactive)” value is reported as “I”. In addition, in assay [1], the pest or weed control at 50 ppm came out at 95%. In addition, the pest or weed control at 200 ppm (in the assay with Piricularia oryzae (setting [6]); in the assay on Phytophthora infestans (setting [7]); in assay [3]; in assay [4]) was 0% in each case.

Take `CCCCCCCCNC(=O)/C=C\SC(=O)CCCCC(=O)OC` [Compound 118, N-octyl-cis-3-[(5-methoxycarbonylpentanoyl)thio]acrylamide]: the “MIC Ps.fl (I = inactive)” value against Pseudomonas fluorescens is reported as “I”. In addition, the pest or weed control at 200 ppm in assay [1] stood at 100%; in the assay on Piricularia oryzae (setting [6]), 75%; in the assay on Phytophthora infestans (read-out: % Control TLB), 90%; in assay [3], 0%; in assay [4] it was 0%.

Consider `CCCCCCCCNC(=O)/C=C\SC(=O)CCCCCCCCC(=O)OC` [Compound 119, N-octyl-cis-3-[(9-methoxycarbonylnonanoyl)thio]acrylamide], for which the “MIC Ps.fl (I = inactive)” value against Pseudomonas fluorescens is “I”. The pest or weed control at 200 ppm in assay [1] is 70%; with Piricularia oryzae (setting [6]), 50%; in the assay on Phytophthora infestans (read-out: % Control TLB) it was 80%; in assay [3], 0%; in assay [4], 0%.

Take `CCCCCCCCNC(=O)/C=C\SC(=O)CCCOc1ccccc1` [Compound 120, N-octyl-cis-3-[(4-phenoxybutanoyl)thio]acrylamide]: in the assay on Pseudomonas fluorescens, the “MIC Ps.fl (I = inactive)” value is listed as “I”. The pest or weed control at 200 ppm in assay [1] worked out at 90%; in the assay on Piricularia oryzae (setting [6]), 0%; in assay [3], 0%; in assay [4] it was 0%. Also, the pest or weed control at 50 ppm in the assay on Phytophthora infestans (read-out: % Control TLB) was 80%.

Values taken from patent US5300672A (priority 1992, dated 1994).
